Experimental data published in ChEMBL document CHEMBL1201861, “Genomics of Drug Sensitity in Cancer screening data, Wellcome Trust Sanger Institute”.
pIC50: −log10 of the molar value.

Columns and labels:
[1] = tested on: KU-19-19; assay: cells; format: functional, cell-based, Homo sapiens; conditions: Homo sapiens, KU-19-19
Description: SANGER: Inhibition of human KU-19-19 cell growth in a cell viability assay.

[2] = tested on: DMS-53; assay: cells; format: functional, cell-based, Homo sapiens; conditions: Homo sapiens, DMS-53;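 further: cell viability assay measuring growth inhibition of human DMS-53 cells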
Description: SANGER: Inhibition of human DMS-53 cell growth in a cell viability assay.

[3] = tested on: Detroit 562; assay: cells; format: functional, cell-based, Homo sapiens; conditions: Homo sapiens, Detroit 562;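 further: growth inhibition of human Detroit 562 cells, read out by a cell viability assay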
Description: SANGER: Inhibition of human Detroit562 cell growth in a cell viability assay.

[4] = tested on: BOKU; assay: cells; format: functional, cell-based, Homo sapiens; conditions: Homo sapiens, BOKU;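 further: growth inhibition of the human BOKU cell line, read out by a cell viability assay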
Description: SANGER: Inhibition of human BOKU cell growth in a cell viability assay.

[5] = tested on: Huh-7; assay: cells; format: functional, cell-based, Homo sapiens; conditions: Homo sapiens, Huh-7;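 further: HuH-7 cell growth inhibition, read out with a cell viability assay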
Description: SANGER: Inhibition of human HuH-7 cell growth in a cell viability assay.

[6] = tested on: PLC-PRF-5; assay: cells; format: functional, cell-based, Homo sapiens; conditions: Homo sapiens, PLC-PRF-5;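 further: growth inhibition of human PLC-PRF-5 cells, read out with a viability assay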
Description: SANGER: Inhibition of human PLC-PRF-5 cell growth in a cell viability assay.

[7] = tested on: COLO-678; assay: cells; format: functional, cell-based, Homo sapiens; conditions: Homo sapiens, COLO-678
Description: SANGER: Inhibition of human COLO-678 cell growth in a cell viability assay.

[8] = tested on: MEL-JUSO; assay: cells; format: functional, cell-based, Homo sapiens; conditions: Homo sapiens, MEL-JUSO;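 further: growth inhibition of human MEL-JUSO cells, read out with a cell viability assay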
Description: SANGER: Inhibition of human MEL-JUSO cell growth in a cell viability assay.

[9] = tested on: SCC-9; assay: cells; format: functional, cell-based, Homo sapiens; conditions: Homo sapiens, SCC-9;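 further: Read-out is a cell viability assay, with values giving inhibition of cell growth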
Description: SANGER: Inhibition of human SCC-9 cell growth in a cell viability assay.

[10] = tested on: MFE-296; assay: SANGER: Inhibition of human MFE-296 cell growth in a cell viability assay.; format: functional, cell-based; conditions: Homo sapiens, MFE-296
[11] = tested on: SNU-423; assay: cells; format: functional, cell-based, Homo sapiens; conditions: Homo sapiens, SNU-423
Description: SANGER: Inhibition of human SNU-423 cell growth in a cell viability assay.

[12] = tested on: Caov-3 cell line; assay: cells; format: functional, cell-based, Homo sapiens; conditions: Homo sapiens, Caov-3;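 further: cell growth inhibition read out by a viability assay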
Description: SANGER: Inhibition of human Caov-3 cell growth in a cell viability assay.

[13] = tested on: NCI-H2347; assay: cells; format: functional, cell-based, Homo sapiens; conditions: Homo sapiens, NCI-H2347;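 further: growth inhibition of the cell line, read out with a cell viability assay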
Description: SANGER: Inhibition of human NCI-H2347 cell growth in a cell viability assay.

[14] = tested on: CCF-STTG1; assay: cells; format: functional, cell-based, Homo sapiens; conditions: Homo sapiens, CCF-STTG1;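 further: growth inhibition of human CCF-STTG1 cells, determined with a cell viability read-out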
Description: SANGER: Inhibition of human CCF-STTG1 cell growth in a cell viability assay.

[15] = tested on: LC-1F; assay: cells; format: functional, cell-based, Homo sapiens; conditions: Homo sapiens, LC-1F;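 further: growth inhibition of human LC-1F cells, read out with a cell viability assay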
Description: SANGER: Inhibition of human LC-1F cell growth in a cell viability assay.

[16] = tested on: RPMI-6666; assay: cells; format: functional, cell-based, Homo sapiens; conditions: Homo sapiens, RPMI-6666
Description: SANGER: Inhibition of human RPMI-6666 cell growth in a cell viability assay.

[17] = tested on: Calu-1; assay: SANGER: Inhibition of human Calu-1 cell growth in a cell viability assay.; format: functional, cell-based; conditions: Homo sapiens, Calu-1
[18] = tested on: 8305C; assay: cells; format: functional, cell-based, Homo sapiens; conditions: Homo sapiens, 8305C
Description: SANGER: Inhibition of human 8305C cell growth in a cell viability assay.

[19] = tested on: NCI-H838; assay: cells; format: functional, cell-based, Homo sapiens; conditions: Homo sapiens, NCI-H838;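 further: growth inhibition of human NCI-H838 cells, read out by a cell viability assay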
Description: SANGER: Inhibition of human NCI-H838 cell growth in a cell viability assay.

[20] = tested on: HCC1395; assay: cells; format: functional, cell-based, Homo sapiens; conditions: Homo sapiens, HCC1395;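 further: growth inhibition of HCC1395 cells, read out by a cell viability assay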
Description: SANGER: Inhibition of human HCC1395 cell growth in a cell viability assay.

[21] = tested on: U-251; assay: cells; format: functional, cell-based, Homo sapiens; conditions: Homo sapiens, U-251;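 further: growth inhibition of human U-251 cells, read out through a cell viability assay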
Description: SANGER: Inhibition of human U251 cell growth in a cell viability assay.

[22] = tested on: SW948; assay: cells; format: functional, cell-based, Homo sapiens; conditions: Homo sapiens, SW948;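 further: growth inhibition of SW948 cells, read out with a cell viability assay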
Description: SANGER: Inhibition of human SW948 cell growth in a cell viability assay.

[23] = tested on: OVCAR-5; assay: cells; format: functional, cell-based, Homo sapiens; conditions: Homo sapiens, OVCAR-5;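 further: growth inhibition of human OVCAR-5 cells, read out with a cell viability assay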
Description: SANGER: Inhibition of human OVCAR-5 cell growth in a cell viability assay.

[24] = tested on: GCT; assay: cells; format: functional, cell-based, Homo sapiens; conditions: Homo sapiens, GCT;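 further: GCT cell line proliferation inhibition, read out with a cell viability assay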
Description: SANGER: Inhibition of human GCT cell growth in a cell viability assay.

[25] = tested on: EFO-27; assay: cells; format: functional, cell-based, Homo sapiens; conditions: Homo sapiens, EFO-27;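 further: growth inhibition of EFO-27 cells, read out with a cell viability assay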
Description: SANGER: Inhibition of human EFO-27 cell growth in a cell viability assay.

[26] = tested on: MDA-MB-468; assay: cells; format: functional, cell-based, Homo sapiens; conditions: Homo sapiens, MDA-MB-468
Description: SANGER: Inhibition of human MDA-MB-468 cell growth in a cell viability assay.

[27] = tested on: IPC-298; assay: SANGER: Inhibition of human IPC-298 cell growth in a cell viability assay.; format: functional, cell-based; conditions: Homo sapiens, IPC-298
[28] = tested on: FTC-133; assay: cells; format: functional, cell-based, Homo sapiens; conditions: Homo sapiens, FTC-133
[29] = tested on: EFE-184; assay: cells; format: functional, cell-based, Homo sapiens; conditions: Homo sapiens, EFE-184
Description: SANGER: Inhibition of human EFE-184 cell growth in a cell viability assay.

[30] = tested on: KP-4; assay: cells; format: functional, cell-based, Homo sapiens; conditions: Homo sapiens, KP-4;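 further: human KP-4 cells, with growth inhibition read out through a cell viability assay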
Description: SANGER: Inhibition of human KP-4 cell growth in a cell viability assay.

[31] = tested on: BFTC-909; assay: cells; format: functional, cell-based, Homo sapiens; conditions: Homo sapiens, BFTC-909
Description: SANGER: Inhibition of human BFTC-909 cell growth in a cell viability assay.

[32] = tested on: TCC-SUP; assay: cells; format: functional, cell-based, Homo sapiens; conditions: Homo sapiens, TCC-SUP;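 further: growth inhibition of TCC-SUP cells, read out with a cell viability assay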
Description: SANGER: Inhibition of human TCCSUP cell growth in a cell viability assay.

[33] = tested on: ACHN; assay: cells; format: functional, cell-based, Homo sapiens; conditions: Homo sapiens, ACHN;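 further: cell viability read-out used to gauge how strongly growth of human ACHN cells is suppressed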
Description: SANGER: Inhibition of human ACHN cell growth in a cell viability assay.

[34] = tested on: IGROV-1; assay: cells; format: functional, cell-based, Homo sapiens; conditions: Homo sapiens, IGROV-1;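 further: reduction of IGROV-1 cell growth, read out with a viability assay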
Description: SANGER: Inhibition of human IGROV-1 cell growth in a cell viability assay.

[35] = tested on: ECC4; assay: cells; format: functional, cell-based, Homo sapiens; conditions: Homo sapiens, ECC4;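 further: growth inhibition of ECC4 cells, read out with a cell viability assay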
Description: SANGER: Inhibition of human ECC4 cell growth in a cell viability assay.

[36] = tested on: COLO 205; assay: cells; format: functional, cell-based, Homo sapiens; conditions: Homo sapiens, COLO 205
Description: SANGER: Inhibition of human COLO-205 cell growth in a cell viability assay.

[37] = tested on: UACC-62; assay: cells; format: functional, cell-based, Homo sapiens; conditions: Homo sapiens, UACC-62;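 further: growth inhibition of human UACC-62 cells, read out by a cell viability assay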
Description: SANGER: Inhibition of human UACC-62 cell growth in a cell viability assay.

[38] = tested on: HSC-4; assay: cells; format: functional, cell-based, Homo sapiens; conditions: Homo sapiens, HSC-4;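 further: growth inhibition of human HSC-4 cells, read out with a cell viability assay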
Description: SANGER: Inhibition of human HSC-4 cell growth in a cell viability assay.

[39] = tested on: ST486; assay: SANGER: Inhibition of human ST486 cell growth in a cell viability assay.; format: functional, cell-based; conditions: Homo sapiens, ST486
[40] = tested on: L-540; assay: cells; format: functional, cell-based, Homo sapiens; conditions: Homo sapiens, L-540;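 further: growth inhibition of the human L-540 cell line, read out with a viability assay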
Description: SANGER: Inhibition of human L-540 cell growth in a cell viability assay.

[41] = tested on: CAPAN-1; assay: cells; format: functional, cell-based, Homo sapiens; conditions: Homo sapiens, CAPAN-1;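 further: growth suppression of CAPAN-1 cells, read out by a cell viability assay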
Description: SANGER: Inhibition of human CAPAN-1 cell growth in a cell viability assay.

[42] = tested on: NCI-H345; assay: cells; format: functional, cell-based, Homo sapiens; conditions: Homo sapiens, NCI-H345;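 further: growth inhibition of NCI-H345 cells measured with a cell viability assay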
Description: SANGER: Inhibition of human NCI-H345 cell growth in a cell viability assay.

[43] = tested on: HCC1143; assay: cells; format: functional, cell-based, Homo sapiens; conditions: Homo sapiens, HCC1143;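 further: growth inhibition of human HCC1143 cells, read out with a cell viability assay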
Description: SANGER: Inhibition of human HCC1143 cell growth in a cell viability assay.

`Oc1ccc2ccccc2c1SSc1c(O)ccc2ccccc12` was tested, and the pIC50 [1] was less than 4.49, the pIC50 [2] was less than 4.49 and the pIC50 [3] was less than 4.49. The pIC50 [4] was less than 4.49, the pIC50 [5] was less than 4.49 and the pIC50 [6] was less than 4.49. It also gave a pIC50 [7] of less than 4.49, a pIC50 [8] of less than 4.49 and a pIC50 [9] of less than 4.49. The pIC50 [10] was less than 4.49, the pIC50 [11] was less than 4.49 and the pIC50 [12] was less than 4.49. The pIC50 [13] was less than 4.49, the pIC50 [14] was less than 4.49 and the pIC50 [15] was less than 4.49. For the same molecule, the pIC50 [16] was less than 4.49, the pIC50 [17] was less than 4.49 and the pIC50 [18] was 5.38. It also gave a pIC50 [19] of less than 4.49, a pIC50 [20] of less than 4.49 and a pIC50 [21] of less than 4.49. For the same molecule, the pIC50 [22] was less than 4.49, the pIC50 [23] was less than 4.49 and the pIC50 [24] was less than 4.49. It also gave a pIC50 [25] of less than 4.49, a pIC50 [26] of less than 4.49 and a pIC50 [27] of less than 4.49. The pIC50 [28] was less than 4.49, the pIC50 [29] was less than 4.49 and the pIC50 [30] was less than 4.49. For the same molecule, the pIC50 [31] was less than 4.49, the pIC50 [32] was less than 4.49 and the pIC50 [33] was less than 4.49. For the same molecule, the pIC50 [34] was less than 4.49, the pIC50 [35] was less than 4.49 and the pIC50 [36] was less than 4.49. It also gave a pIC50 [37] of less than 4.49, a pIC50 [38] of less than 4.49 and a pIC50 [39] of 5.31. The pIC50 [40] was less than 4.49, the pIC50 [41] was less than 4.49 and the pIC50 [42] was less than 4.49. For the same molecule, the pIC50 [43] was less than 4.49.
`Cc1cc([N+](=O)[O-])ccc1NS(=O)(=O)c1cc(Cl)ccc1Cl` showed a pIC50 [1] of less than 4.49, a pIC50 [2] of 5.96 and a pIC50 [3] of 5.27. It also gave a pIC50 [4] of 5.36, a pIC50 [5] of 5.80 and a pIC50 [6] of 5.93. The pIC50 [7] was 4.96, the pIC50 [8] was 5.29 and the pIC50 [9] was less than 4.49. For the same molecule, the pIC50 [10] was 5.33, the pIC50 [11] was 5.14 and the pIC50 [12] was less than 4.49. For the same molecule, the pIC50 [13] was 5.23, the pIC50 [14] was 4.89 and the pIC50 [15] was less than 4.49. It also gave a pIC50 [16] of 4.69, a pIC50 [17] of 5.06 and a pIC50 [18] of 5.40. For the same molecule, the pIC50 [19] was 4.69, the pIC50 [20] was 6.42 and the pIC50 [21] was 5.66. The pIC50 [22] was 4.91, the pIC50 [23] was 4.63 and the pIC50 [24] was 5.53. For the same molecule, the pIC50 [25] was 5.32, the pIC50 [26] was 5.92 and the pIC50 [27] was 5.57. It also gave a pIC50 [28] of 5.17, a pIC50 [29] of 5.24 and a pIC50 [30] of 5.78. The pIC50 [31] was 5.44, the pIC50 [32] was 5.32 and the pIC50 [33] was 5.34. It also gave a pIC50 [34] of 5.58, a pIC50 [35] of less than 4.49 and a pIC50 [36] of 5.59. For the same molecule, the pIC50 [37] was 6.59, the pIC50 [38] was 4.91 and the pIC50 [39] was 5.32. For the same molecule, the pIC50 [40] was 5.02, the pIC50 [41] was 5.62 and the pIC50 [42] was 4.75. The pIC50 [43] was 5.74.
In the case of `COc1cccc2c1C(=O)c1c(O)c3c(c(O)c1C2=O)C[C@@](O)(C(=O)CO)C[C@@H]3O[C@H]1C[C@H](N)[C@H](O)[C@H](C)O1` [DOXORUBICIN], the pIC50 [1] was less than 5.99, the pIC50 [2] was less than 5.99 and the pIC50 [3] was 6.64. It also gave a pIC50 [4] of 6.96, a pIC50 [5] of 6.59 and a pIC50 [6] of 6.05. The pIC50 [7] was 6.37, the pIC50 [8] was 7.84 and the pIC50 [9] was less than 5.99. For the same molecule, the pIC50 [10] was 7.15, the pIC50 [11] was 6.81 and the pIC50 [12] was 6.39. For the same molecule, the pIC50 [13] was 6.80, the pIC50 [14] was 7.45 and the pIC50 [15] was less than 5.99. The pIC50 [16] was 7.18, the pIC50 [17] was 7.13 and the pIC50 [18] was 7.20. The pIC50 [19] was 6.65, the pIC50 [20] was less than 5.99 and the pIC50 [21] was 7.19. The pIC50 [22] was less than 5.99, the pIC50 [23] was 6.93 and the pIC50 [24] was 6.06. It also gave a pIC50 [25] of 7.01, a pIC50 [26] of 7.12 and a pIC50 [27] of 6.71. The pIC50 [28] was 6.64, the pIC50 [29] was less than 5.99 and the pIC50 [30] was 7.39. For the same molecule, the pIC50 [31] was 6.93, the pIC50 [32] was less than 5.99 and the pIC50 [33] was 7.31. It also gave a pIC50 [34] of 8.14, a pIC50 [35] of less than 5.99 and a pIC50 [36] of 7.57. For the same molecule, the pIC50 [37] was less than 5.99, the pIC50 [38] was 7.12 and the pIC50 [39] was 7.81. The pIC50 [40] was 6.67, the pIC50 [41] was 7.29 and the pIC50 [42] was less than 5.99. It also gave a pIC50 [43] of less than 5.99.
